First: Cc1cc(C)c2cc(C(=O)O)[nH]c2c1C
Second: Cc1cc(C)c2cc(C(=O)O)[nH]c2c1
The melting point of the first is higher: 227 to 229 °C for the first, 168 to 170 °C for the second.

Compared with `Nc1ccc(CN2C(=O)CCC2=O)cc1`, `NCc1ccc(N2CCNC(=O)C2)cc1` is higher in melting point: 141 to 143 °C for the first, 189 to 191 °C for the second.

Compared with `COc1ccc(C(C)=O)cc1CC(=O)O`, `CC(=O)Oc1cc(C)ccc1C(=O)O` is higher in melting point: 122 to 124 °C for the first, 139 to 141 °C for the second.

First: COC(=O)c1cc(C(=O)OC)cc(-n2c(C)cc(C(=O)CCl)c2C)c1
Second: COc1cc(OC)c(C(C)=O)cc1Cl
The melting point of the first is higher: 153 to 155 °C for the first, 134 to 136 °C for the second.

First: Cc1cc(S)n2c(nc3ccccc32)c1C#N
Second: Cc1ccccc1-c1csc(N)n1
The melting point of the first is higher: 198 to 200 °C for the first, 80 to 82 °C for the second.

First: Nc1ccc(S(=O)(=O)Nc2ccccc2)cc1
Second: O=C(O)c1ccc(S(=O)(=O)Nc2ccccc2Cl)cc1
The melting point of the first is higher: 176 to 178 °C for the first, 111 to 113 °C for the second.

Compared with `CCOC(=O)C(NC(=O)c1ccc(Cl)c(Cl)c1)C(C)O` (configuration not stated), `O=C(O)Cc1cc(Cl)ccc1Cl` is higher in melting point: 68 to 70 °C for the first, 101 to 103 °C for the second.

Compared with `CC(C)(C)c1ccc(C2(CN)CCCC2)cc1`, `O=C(NCC1CCCNC1)c1ccccc1` (configuration not stated) is higher in melting point: 62 to 64 °C for the first, 82 to 84 °C for the second.

First: O=C1CC(c2ccccc2)=NN1
Second: ClCc1ncc(-c2ccccc2)o1
The melting point of the first is higher: 246 to 248 °C for the first, 63 to 65 °C for the second.

First: Nc1nncc(-c2ccccc2OC(F)F)n1
Second: Cc1ccccc1-c1nnc(N)[nH]1
The melting point of the first is lower: 159 to 161 °C for the first, 219 to 221 °C for the second.

First: Cc1cc(C)c2c(c1)NC(=O)C2=O
Second: Cc1cc2c(cc1Br)NCC(C)O2 (configuration not stated)
The melting point of the first is higher: 233 to 235 °C for the first, 93 to 95 °C for the second.

First: NS(=O)(=O)c1ccc2c(c1)CCC(=O)N2
Second: COc1ccc(S(N)(=O)=O)cc1[N+](=O)[O-]
The melting point of the first is higher: 263 to 265 °C for the first, 139 to 141 °C for the second.

`COc1ccc(CCNC(C)=O)cc1S(=O)(=O)Cl` and `COc1cc(Cl)c(S(=O)(=O)Cl)cc1Cl` fall in the same range of melting point: 76 to 78 °C for the first, 76 to 78 °C for the second.

First: O=[N+]([O-])c1cccc(-c2nccs2)c1
Second: O=[N+]([O-])c1ccc(Cc2nnn[nH]2)cc1
The melting point of the first is higher: 238 to 240 °C for the first, 178 to 180 °C for the second.

First: c1cnn(-c2ccc(N3CCNCC3)nn2)c1
Second: NC(=O)c1ccc2[nH]cc(C3CCNCC3)c2c1
The melting point of the first is higher: 161 to 163 °C for the first, 149 to 151 °C for the second.

Compared with `O=C1CC2(CCOCC2)CN1`, `O=C1CS(=O)CCN1` (configuration not stated) is lower in melting point: 132 to 134 °C for the first, 119 to 121 °C for the second.

Compared with `O=C(O)c1sc2cc(Cl)cc(Cl)c2c1Cl`, `O=C(c1ccc2c(c1)CCO2)c1cc(Cl)ccc1Cl` is lower in melting point: 248 to 250 °C for the first, 81 to 83 °C for the second.

First: CCCCn1c(CCC(=O)O)nc2cc(S(=O)(=O)N3CCOCC3)ccc21
Second: O=C(O)CCCCCc1cccs1
The melting point of the first is higher: 136 to 138 °C for the first, 43 to 45 °C for the second.

Compared with `C#Cc1cccc(NC(=O)CCl)c1`, `CC(C)NC(=O)Nc1cccc(C(=O)O)c1` is higher in melting point: 120 to 122 °C for the first, 239 to 241 °C for the second.

First: Cc1ccc(CN)cn1
Second: CCOC(=O)c1cccnc1S
The melting point of the first is lower: 59 to 61 °C for the first, 99 to 101 °C for the second.

First: O=C(O)c1ccc2nc(Cl)ccc2c1
Second: CSCc1cccc(C(=O)O)c1
The melting point of the first is higher: 228 to 230 °C for the first, 78 to 80 °C for the second.

First: O=C(O)CSc1nnc(-c2ccco2)o1
Second: O=c1[nH]c(-c2ccccn2)no1
The melting point of the first is lower: 152 to 155 °C for the first, 198 to 200 °C for the second.

First: O=C(O)c1ccc(Cl)cc1NS(=O)(=O)c1ccccc1
Second: CCc1ccc(-c2nn(-c3ccccc3)cc2C(=O)O)cc1
The melting point of the first is lower: 189 to 191 °C for the first, 208 to 210 °C for the second.

First: CN(C)c1ncccc1O
Second: Cc1ccc(OC(C)C(=O)O)cc1 (configuration not stated)
The melting point of the first is higher: 173 to 175 °C for the first, 101 to 103 °C for the second.

Compared with `Nc1ccc(-c2ccc[nH]2)cc1`, `C=CCNC(=O)Nc1ccc(N)cc1` is higher in melting point: 120 to 122 °C for the first, 157 to 159 °C for the second.

First: CC1CCc2sc(C(=O)O)cc2C1 (configuration not stated)
Second: Cc1cc(CCCC(=O)O)c(C)s1
The melting point of the first is higher: 132 to 136 °C for the first, 56 to 58 °C for the second.

First: CC1C=CC2C(=O)N(C)C(=O)C2C1C(=O)O (configuration not stated)
Second: Cc1ccc2[nH]nc(C(=O)O)c2c1
The melting point of the first is lower: 172 to 174 °C for the first, 273 to 275 °C for the second.

First: CCCC(CN)C(=O)O (configuration not stated)
Second: CCc1ncncc1C(=O)O
The melting point of the first is higher: 219 to 221 °C for the first, 155 to 157 °C for the second.

Compared with `CN(C)Cc1nc(S)c2ccccc2n1`, `Cc1nnc(S)n1-c1cccc(N)c1` is higher in melting point: 131 to 133 °C for the first, 219 to 221 °C for the second.

First: COc1cc(N)c(C(N)=O)cc1OC
Second: Nc1ncc(Br)cc1S(N)(=O)=O
The melting point of the first is lower: 142 to 144 °C for the first, 199 to 201 °C for the second.

Compared with `CC(C)n1ncc2cc(C=O)c(Cl)nc21`, `Cc1cc(O)nc(C(C)Cl)n1` (configuration not stated) is higher in melting point: 78 to 80 °C for the first, 132 to 134 °C for the second.

Compared with `O=C(O)c1ccc(COc2ccc(F)cc2)o1`, `O=C(O)c1nc(-c2ccccc2)n(-c2ccccc2)n1` is higher in melting point: 165 to 167 °C for the first, 177 to 181 °C for the second.

First: Oc1ccc2c(c1)OCC2O (configuration not stated)
Second: CN(c1ccc(O)cc1)S(=O)(=O)c1cccs1
The melting point of the first is lower: 104 to 106 °C for the first, 149 to 151 °C for the second.

First: Cc1c(Cl)nc(N(C)C)nc1Cl
Second: CCNS(=O)(=O)c1ccc(Br)c(C)c1
The melting point of the first is lower: 54 to 56 °C for the first, 91 to 93 °C for the second.

Compared with `O=C(O)C(=O)c1ccc(F)c(F)c1`, `FC(F)(F)Cn1c(S)nnc1-c1ccncc1` is higher in melting point: 88 to 90 °C for the first, 243 to 245 °C for the second.

First: Nc1ncn(Cc2ccccn2)n1
Second: CC(Br)C(=O)C12CC3CC(CC(C3)C1)C2 (configuration not stated)
The melting point of the first is higher: 113 to 115 °C for the first, 86 to 88 °C for the second.
